Test results taken from US20240252463A1, “METHODS OF TREATING FIBROTIC PATHOLOGIES” (Mayo Foundation for Medical Education and Research, priority 2018, published 2024).
Where no end group is shown, it is not given here.

Key:
Type in all cases: cell-based, human
YAP/TAZ [1] = test: YAP/TAZ nuclear localization in IMR-90 and other mesenchymal cells (cardiac, dermal fibroblasts, hepatic stellate cells); conditions: for YAP/TAZ nuclear localization in confluent fibroblasts, ligand alone: ET-1 100 nM, LPA 10 μM, 5-HT 1 μM, 2 hours (FIG. 2c)
Procedure: FIGS. 2A-2E Dopamine Receptor D1 agonism blocks YAP/TAZ nuclear localization. 2a. Selective agonists of dopamine receptor D1 with varying efficacy inhibit YAP/TAZ nuclear localization; this effect can be overcome by treatment with a DRD1 receptor antagonist (SCH 39166, 3 μM), (Dihydrexidine, 10 μM). IMR-90 cells treated 2 hours prior to fixation. N=4 (****p<0.0001 vs. 0.1% DMSO vehicle control). Scale bar represents 100 μm. 2b. Consistent with DRD1 expression, DHX inhibits YAP/TAZ only in fibroblasts (IPF-FBs) but not in epithelial (NHEpCs) or endothelial (NHMVECs) cells. N=4 (****p<0.0001 vs. 0.1% DMSO vehicle control) 2c. YAP/TAZ localization is induced through multiple ligands which stimulate receptors coupled to Galphαi/q/12, endothelin 1 (ET-1: 100 nM), lysophosphatidic acid (LPA: 10 μM), and serotonin (5-HT: 1 μM). In each case DHX treatment (10 μM) can reverse this effect on YAP/TAZ. IMR-90 cells plated densely onto plastic cell culture plates for 24 hours in media containing 0.1% FBS, treated for 2 hours prior to fixation. N=4 (****p<0.0001 vs. 0.1% DMSO vehicle control), (++++p<0.0001 vs. the respective stimulated agonist ET-1, LPA, or 5-HT). Scale bar represents 100 μm. 2d. cAMP measured in IPF patient-derived fibroblasts treated for 20 minutes with DHX (10 μM)+/−SCH 39166 (3 μM). N=3 (**p<0.01 vs. 0.1% DMSO vehicle control). 2e. Phosphorylation of YAP by Rho-kinase inhibitor Y27632 (20 μM), direct cAMP stimulator Forskolin (10 μM), or DHX (10 μM). IMR-90 cells cultured for 24 hours in media containing 0.1% FBS, treated 2 hours prior to fixation. N=3 (***p<0.001 vs. 0.1% DMSO vehicle control).
FIGS. 6A-6C DHX inhibits YAP/TAZ localization in fibroblasts from multiple tissues. 6a. Mesenchymal cells derived from lung (IMR-90 and IPF-FBs) hepatic stellate cells (HSC), human adult cardiac fibroblasts, (HACF) and human dermal fibroblasts (HDF) were plated densely (Confluent) or sparsely (Control and all remaining conditions) onto plastic cell culture plates for 24 hours in media containing 0.1% FBS, treated for 2 hours with Rho kinase inhibitor Y27632, adenylate cyclase activator forskolin and DHX. N=4, Cells that were positive for nuclear YAP/TAZ were quantified by automated image analysis. 6b. Time course for DHX inhibition of YAP/TAZ nuclear localization. IMR-90 cells, N=3 (***p<0.001 vs. 0.1% DMSO vehicle control). 6c. […] N=3.
(§1) ImmunofluorescenceMicroscopy: Cells were plated into 96 well plates (Corning 3603) in their specific growth media and allowed to attach (8 hours). Media was then exchanged for the indicated conditions for each experiment. Cells were fixed in 3.7% formalin (Sigma-Aldrich), permeabilized in 0.25% Triton X-100 (Sigma-Aldrich) and then blocked with 1% BSA for 1 h. Cells or tissue sections were incubated overnight with mouse monoclonal antibody against αSMA (Sigma-Aldrich F3777), and/or a rabbit monoclonal antibody against YAP/TAZ (Cell Signaling D24E4) diluted 1:200 in PBS with 1% BSA. Cells were then washed and exposed to flourescence-conjugated secondary antibodies (Invitrogen) diluted 1:1000 and DAPI (Thermo Fisher Scientific). Images were taken with a Cytation5 (BioTek) microscope. For scoring αSMA positive cells (FIG. 3b), an observer blinded to the treatment conditions counted αSMA-positive cells using a visual threshold for bright fibrous staining; a minimum of 200 cells was counted for each condition. YAP/TAZ localization was quantified (FIG. 2, 6, 8) using Gen5 (Biotek) software. Images were taken at 4× magnification of both DAPI and YAP/TAZ staining. […] Quantification of double positive (YAP/TAZ and αSMA) cells from lung tissue sections (FIG. 4d) was performed similarly; however separate thresholds were established for both YAP/TAZ and αSMA. A minimum of 4000 cells was quantified for each mouse.

YAP/TAZ [2] = test: YAP/TAZ nuclear localization (immunofluorescence, automated imaging) in IPF patient-derived lung fibroblasts; conditions: 10 μM, treated 2 hours prior to fixation; for Nuclear localization (% of total cells) IPF-1: patient sample IPF-1; for Nuclear localization (% of total cells) IPF-2: patient sample IPF-2; for Nuclear localization (% of total cells) IPF-3: patient sample IPF-3; for Nuclear localization (% of total cells) IPF-4: patient sample IPF-4
Procedure: 27A. […] IPF patient-derived lung fibroblasts cells treated 2 hours prior to fixation with diverse dopaminergic agonists (10 μM). N=4 different patient samples. % nuclear localization of YAP/TAZ was determined using automated imaging software. Scale bar represents 100 μm. 27C. cAMP measured in IPF patient-derived fibroblasts treated for 20 minutes with DHX. N=3. 27E.
as §1

αSMA = αSMA intensity (fibroblast activation) in IPF patient-derived lung fibroblasts + TGFβ; conditions: 1 μM + TGFβ, treated for 72 hours; for αSMA intensity (% of DMSO control) IPF-1: patient sample IPF-1; for αSMA intensity (% of DMSO control) IPF-2: patient sample IPF-2; for αSMA intensity (% of DMSO control) IPF-3: patient sample IPF-3; for αSMA intensity (% of DMSO control) IPF-4: patient sample IPF-4
Procedure: as §1

Compound | YAP/TAZ nuclear localization (YAP/TAZ [1]; fibroblasts on stiff matrix (plastic), IMR-90 cells treated 2 hours (FIG. 2a)) | YAP/TAZ nuclear localization in confluent fibroblasts, ligand alone (YAP/TAZ [1]) | Nuclear localization (% of total cells) IPF-1 (YAP/TAZ [2]) | Nuclear localization (% of total cells) IPF-2 (YAP/TAZ [2]) | Nuclear localization (% of total cells) IPF-3 (YAP/TAZ [2]) | Nuclear localization (% of total cells) IPF-4 (YAP/TAZ [2]) | αSMA intensity (% of DMSO control) IPF-1 (αSMA) | αSMA intensity (% of DMSO control) IPF-2 (αSMA) | αSMA intensity (% of DMSO control) IPF-3 (αSMA) | αSMA intensity (% of DMSO control) IPF-4 (αSMA)
Oc1cc2c(c(Cl)c1O)CCNCC2c1ccccc1 (stereo not shown) [SKF-81297] | reduced nuclear localization of YAP/TAZ |  |  |  |  |  |  |  |  | 
NCCc1c[nH]c2ccc(O)cc12 [serotonin] |  | enhance YAP/TAZ nuclear localization |  |  |  |  |  |  |  | 
(R)-(−)-Apomorphine [(R)-(−)-Apomorphine•HCl] |  |  | 29.21 % of total cells | 31.97 % of total cells | 27.47 % of total cells | 17.86 % of total cells | 7.067 % of DMSO control | 1.173 % of DMSO control | 0.9618 % of DMSO control | 33.67 % of DMSO control
R(−)-2,10,11-Trihydroxyaporphine [R(−)-2,10,11-Trihydroxyaporphine•HBr] |  |  | 13.71 % of total cells | 22.15 % of total cells | 24.15 % of total cells | 17.75 % of total cells | 2.888 % of DMSO control | 1.698 % of DMSO control | 7.646 % of DMSO control | 15.9942 % of DMSO control
R(−)-Propylnorapomorphine [R(−)-Propylnorapomorphine•HCl] |  |  | 28.35 % of total cells | 26.71 % of total cells | 42.74 % of total cells | 29.03 % of total cells | 5.081 % of DMSO control | 1.879 % of DMSO control | 5.561 % of DMSO control | 19.96 % of DMSO control
endothelin-1: GPCR ligand implicated in promotion of fibrosis (CSCSSLMDKECVYFCHLDIIW; ends and bridges not checked; cysteine pairing not given here; UniProt P05305 53-73, looked up) |  | enhance YAP/TAZ nuclear localization |  |  |  |  |  |  |  | 
lysophosphatidic acid |  | enhance YAP/TAZ nuclear localization |  |  |  |  |  |  |  | 
